Here are results for 16 compounds from PubChem BioAssay (NCI).

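Tested at 5 concentrations; 48 h exposure; 96-well plates; endpoints linearly interpolated, else capped at highest concentration. The concentration for full growth arrest is given as TGI.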 A value given as a limit tells only on which side of the number the result lay.

What all share (assay): NCI anticancer screen, dose series, 48 h
For experiment [1], the system named is A549 NSCLC.
In experiment [2] the test system is HCT-116 colon.
Experiment [3] concerns SR leukemia.
Experiment [4] relates to TK-10 renal.
In experiment [5] the test system is NCI-H522 lung.
Experiment [6] relates to MCF7 breast.
The test system of experiment [7] is T-47D breast.
Experiment [8] concerns MALME-3M melanoma.
Experiment [9] deals with HT29 colon.
Experiment [10] has as its system HCT-15 colon.
The test system of experiment [11] is BT-549 breast.
For experiment [12], the system named is RXF 393 renal.
Experiment [13] has as its system SK-MEL-28 melanoma.
The test system of experiment [14] is MDA-MB-231 breast.
Experiment [15] relates to OVCAR-5 ovarian.
Experiment [16] deals with IGROV1 ovarian.
For experiment [17], the system named is SNB-75 CNS.
The subject of experiment [18] is HOP-92 NSCLC.
The test system of experiment [19] is LOX IMVI melanoma.
Experiment [20] deals with SF-539 CNS.

Regarding `Cc1ccc(CCCCCOc2ccc(C3=NCCO3)cc2)s1`, the TGI in experiment [1], in experiment [2], in experiment [3], in experiment [4], in experiment [5] and in experiment [6] was greater than 100 µM in each case. The TGI in experiment [7], in experiment [8], in experiment [9], in experiment [10], in [11] and in [12] was greater than 100 µM throughout. The TGI in experiment [13], in [14], in [15], in experiment [16] and in experiment [17] was greater than 100 µM throughout.

Regarding `O=C(CN1CCOCC1)Nc1ccc2c(c1)C1Oc3ccccc3CC1CO2` (stereo not drawn), the TGI in experiment [1], in [2], in experiment [3], in experiment [18], in experiment [19] and in experiment [4] was greater than 100 µM throughout. The TGI in experiment [5], in experiment [6], in experiment [7], in [8], in [9] and in experiment [10] was greater than 100 µM in each case. Further, the TGI in experiment [11], in experiment [20], in experiment [14], in experiment [15] and in experiment [16] was greater than 100 µM in each case.

In the case of `NS(=O)(=O)c1nnc(/N=C(/CCC(=O)O)C(=O)O)s1`, the TGI in experiment [1], in experiment [2], in experiment [3], in experiment [18], in experiment [19] and in experiment [4] was greater than 100 µM in each case. Further, the TGI in experiment [5], in experiment [6], in experiment [7], in experiment [8], in experiment [9] and in experiment [10] was greater than 100 µM in each case. Also, the TGI in experiment [11], in experiment [20], in experiment [13], in experiment [14], in [15] and in [16] was greater than 100 µM in each case. The same compound displayed a TGI in experiment [17] greater than 100 µM.

Turning to `CC(C)(C)N(Cc1ccoc1)C(=O)/C=C\S(=O)c1ccccc1` (stereo not drawn), the TGI in [1] was greater than 100 µM; in experiment [2], 34.1 µM; in experiment [3], 77.8 µM; in experiment [18] it was 34.4 µM; in experiment [19] it was 21.8 µM; in [4] it was greater than 100 µM. For the same compound, the TGI in [5] is 40.5 µM; in [6], 36.7 µM; in experiment [7] it was 38.2 µM; in experiment [9] it was 97.7 µM; in experiment [10], 51.4 µM; in experiment [11], 30.3 µM. In addition, the TGI is 42.9 µM in experiment [20]; 44.4 µM in [13]; 42.3 µM in [14]; 59.2 µM in [15]; 32.9 µM in [16].

In the case of `Cc1nn(C(=O)Cc2ccccc2)c2c1C(c1ccccc1[N+](=O)[O-])SC(N)=N2` (stereo not drawn), the TGI in experiment [1], in experiment [2], in experiment [3], in experiment [19], in [4] and in experiment [5] was greater than 100 µM in each case. In addition, the TGI in experiment [6], in experiment [7], in experiment [8], in [9], in experiment [10] and in experiment [11] was greater than 100 µM each time. For the same compound, the TGI in experiment [20], in [13], in [14], in experiment [16] and in experiment [17] was greater than 100 µM throughout.

As to `CC(C)(C)c1cc(C(=O)/C=C/c2ccc3c(c2)CCO3)cc(C(C)(C)C)c1O`, the TGI was 22.9 µM in experiment [1]; greater than 33.7 µM in [2]; 7.39 µM in [3]; greater than 100 µM in experiment [18]; greater than 100 µM in [19]; greater than 25.9 µM in [4]. Also, the TGI in [5] is 2.16 µM; in experiment [6], greater than 100 µM; in [7] it was greater than 100 µM; in experiment [8] it was greater than 100 µM; in [9] it was greater than 27.2 µM; in [10], greater than 25.9 µM. Moreover, the TGI is greater than 63.6 µM in [11]; 1.46 µM in [20]; 0.579 µM in [12]; greater than 100 µM in experiment [13]; 6.54 µM in [14]; greater than 27.6 µM in experiment [15]. The TGI in experiment [16] is greater than 100 µM.

For `COc1ccc(NS(=O)c2ccc(OC)cc2)cc1` (stereo not drawn), the TGI in [1], in [2], in [3], in experiment [19], in experiment [4] and in experiment [5] was greater than 100 µM each time. Moreover, the TGI was greater than 100 µM in [6]; 82.8 µM in experiment [7]; 90.9 µM in [8]; greater than 100 µM in experiment [9]; greater than 100 µM in [10]; greater than 100 µM in experiment [11]. Further, the TGI in [20] was 32.5 µM; in experiment [13], greater than 100 µM; in experiment [14], greater than 100 µM; in experiment [15] it was greater than 100 µM; in [16], 99.4 µM.

Consider `CC(=O)N1N=C(c2c(O)ccc3ccccc23)CC1c1ccc(Cl)cc1` (stereo not drawn), for which the TGI in experiment [1] is greater than 100 µM; in experiment [2], 28.4 µM; in experiment [3], 28.3 µM; in [18], 39.5 µM; in [4] it was greater than 100 µM; in [5] it was greater than 100 µM. Further, the TGI was 35.1 µM in experiment [6]; greater than 100 µM in experiment [7]; 76.8 µM in experiment [8]; 69.5 µM in [9]; greater than 100 µM in experiment [10]; 51.1 µM in [11]. Further, the TGI in experiment [20] is 37.4 µM; in [12] it was 42.9 µM; in experiment [13] it was 74 µM; in experiment [14] it was 43.5 µM; in experiment [15], 58 µM; in experiment [16], 63.9 µM. Further, the TGI in experiment [17] was greater than 100 µM.

Consider `CN(C)/C=C/c1ccncc1`, for which the TGI in experiment [1], in [2], in experiment [3], in [18], in [19] and in experiment [4] was greater than 100 µM in each case. The TGI in experiment [5], in [6], in experiment [7], in [8], in experiment [9] and in experiment [10] was greater than 100 µM each time. Moreover, the TGI in experiment [11], in experiment [20], in experiment [12], in experiment [13], in [14] and in experiment [15] was greater than 100 µM throughout. The compound also displayed a TGI in experiment [16] greater than 100 µM.

For the compound `Nc1ccccc1OCc1cc(=O)c(OCc2ccccc2)co1`, the TGI in experiment [1] was greater than 100 µM; in experiment [2], greater than 100 µM; in experiment [3], greater than 100 µM; in [18] it was 36.4 µM; in experiment [19], greater than 100 µM; in experiment [4], 61.2 µM. Moreover, the TGI is 89 µM in [6]; greater than 100 µM in experiment [7]; greater than 100 µM in experiment [8]; greater than 100 µM in experiment [9]; greater than 100 µM in [10]; greater than 100 µM in experiment [11]. The TGI in experiment [20] was 65.1 µM; in experiment [13], greater than 100 µM; in [14] it was 55.8 µM; in [15], greater than 100 µM.

As for `COc1ccc(/C(C)=N/NC(=O)c2ccncc2)cc1OC`, the TGI in [1], in experiment [3], in experiment [18], in [19], in experiment [6] and in experiment [7] was greater than 10 µM in each case. Besides, the TGI in [8], in [10], in [11], in experiment [20], in [14] and in experiment [16] was greater than 10 µM each time. This compound also displayed a TGI in experiment [17] greater than 10 µM.

With `O=C1C(=C(C(=O)c2ccccc2)C(=O)c2ccccc2)OC(c2ccccc2)=C1C(=O)c1ccccc1`, the TGI was determined as 51.6 µM in experiment [1]; 14.1 µM in experiment [2]; 14.2 µM in [3]; 31.6 µM in experiment [18]; 18.5 µM in experiment [19]; 61.4 µM in [4]. For the same compound, the TGI in [5] was found to be 19.5 µM; in [6], 29.7 µM; in [7], 53.6 µM; in experiment [8] it was 39.4 µM; in [9], 26.5 µM; in experiment [10], 14.9 µM. For the same compound, the TGI worked out at 19.9 µM in experiment [11]; 22.3 µM in experiment [20]; 8.13 µM in experiment [12]; 59 µM in [13]; 32.2 µM in experiment [14]; 50.4 µM in experiment [15]. Moreover, the TGI in experiment [16] is 8.84 µM.

Regarding `Clc1ccccc1-c1nnc2c(-c3ccccc3)nc3ccccc3n12`, the TGI in experiment [1], in [2], in [3], in experiment [18], in experiment [19] and in [4] was greater than 100 µM throughout. Also, the TGI was greater than 100 µM in [6]; 69.2 µM in [7]; greater than 100 µM in [8]; greater than 100 µM in experiment [9]; greater than 100 µM in [10]; greater than 100 µM in experiment [11]. Besides, the TGI in [20], in [12], in [13], in experiment [14], in [15] and in [16] was greater than 100 µM throughout.

`Cc1csc2nc3[nH]ncc3c(=O)n12`: the TGI in experiment [1], in [2], in [3], in [19], in [5] and in [6] was greater than 100 µM throughout. The TGI in experiment [7], in experiment [8], in experiment [9], in experiment [10], in experiment [11] and in experiment [20] was greater than 100 µM throughout. For the same compound, the TGI in experiment [13], in experiment [14], in experiment [15], in experiment [16] and in [17] was greater than 100 µM in each case.

As for `CCOC(=O)c1nc2ccccc2nc1Oc1ccc(OC)cc1`, the TGI in experiment [1], in experiment [2], in experiment [3], in experiment [18], in experiment [19] and in experiment [4] was greater than 100 µM throughout. Further, the TGI in experiment [5], in experiment [6], in experiment [7], in [8], in experiment [9] and in [10] was greater than 100 µM in each case. Besides, the TGI in [11], in experiment [20], in [12], in experiment [13], in experiment [14] and in [15] was greater than 100 µM throughout. In [16], this compound gave a TGI greater than 100 µM.

For the compound `O=C(Cc1ccccc1)NNc1nc(NNC(=O)c2ccncc2)nc(Nc2ccc(Cl)cc2)n1`, the TGI in [1], in experiment [3], in experiment [18], in experiment [19], in experiment [4] and in [6] was greater than 10 µM each time. Also, the TGI in experiment [7], in [8], in experiment [10], in [11], in [20] and in experiment [13] was greater than 10 µM throughout. Besides, the TGI in [14], in [16] and in [17] was greater than 10 µM throughout.
